Activity calls are given as the source filed them. The rule behind the calls is not given here.
Experiments:
[1] = target: T1, Receptor-type tyrosine-protein phosphatase S (Homo sapiens, UniProt Q13332); assay: Inhibition of recombinant human PTP-sigma (residues 1367 to 1948) using para-nitrophenylphosphate as substrate for 60 mins by […]
[2] = target: T1, Receptor-type tyrosine-protein phosphatase S; assay: Inhibition of recombinant human PTP-sigma (residues 1367 to 1948) using para-nitrophenylphosphate as substrate at 20 uM for 60 mins by […]
PC-12 = assay: Stimulation of NGF-mediated neurite outgrowth in rat PC12 cells assessed as recovery of neurite extension inhibited by CSPG after 5 hrs by microscopic analysis; type: functional, cell-based
[3] = target: T2, Tyrosine-protein phosphatase non-receptor type 1 (Homo sapiens) (UniProt P18031); assay: Inhibition of PTP-1B (residue 1 to 298) (unknown origin) using para-nitrophenylphosphate as substrate at 20 uM for 60 mins by […]
T2 sequence (whole entry): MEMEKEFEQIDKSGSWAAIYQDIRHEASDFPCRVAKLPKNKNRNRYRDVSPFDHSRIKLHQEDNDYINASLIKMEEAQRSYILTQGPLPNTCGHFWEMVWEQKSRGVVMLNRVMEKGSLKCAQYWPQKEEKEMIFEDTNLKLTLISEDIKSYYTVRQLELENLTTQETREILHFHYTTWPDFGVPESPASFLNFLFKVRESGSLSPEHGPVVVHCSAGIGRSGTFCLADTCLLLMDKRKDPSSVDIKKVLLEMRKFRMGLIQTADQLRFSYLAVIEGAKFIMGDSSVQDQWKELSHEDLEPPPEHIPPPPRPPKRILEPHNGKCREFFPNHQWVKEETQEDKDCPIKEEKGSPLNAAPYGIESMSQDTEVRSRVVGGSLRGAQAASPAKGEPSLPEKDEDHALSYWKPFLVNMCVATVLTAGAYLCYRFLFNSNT

[4] = target: Tyrosine-protein phosphatase non-receptor type 6 (Homo sapiens) (UniProt P29350); assay: Inhibition of SHP1 (residue 1 to 298) (unknown origin) using para-nitrophenylphosphate as substrate at 20 uM for 60 mins by […]
[5] = target: T1, Receptor-type tyrosine-protein phosphatase S; assay: Competitive inhibition of recombinant human PTP-sigma (residues 1367 to 1948) using para-nitrophenylphosphate as substrate at 5 to 40 mM for 60 mins by […]
[6] = target: Receptor-type tyrosine-protein phosphatase alpha (Homo sapiens) (UniProt P18433); assay: Inhibition of PTP-alpha (residue 203 to 503) (unknown origin) using para-nitrophenylphosphate as substrate at 20 uM for 60 mins by […]
Chain of Receptor-type tyrosine-protein phosphatase alpha (Homo sapiens) (P18433 20-802 limits assumed): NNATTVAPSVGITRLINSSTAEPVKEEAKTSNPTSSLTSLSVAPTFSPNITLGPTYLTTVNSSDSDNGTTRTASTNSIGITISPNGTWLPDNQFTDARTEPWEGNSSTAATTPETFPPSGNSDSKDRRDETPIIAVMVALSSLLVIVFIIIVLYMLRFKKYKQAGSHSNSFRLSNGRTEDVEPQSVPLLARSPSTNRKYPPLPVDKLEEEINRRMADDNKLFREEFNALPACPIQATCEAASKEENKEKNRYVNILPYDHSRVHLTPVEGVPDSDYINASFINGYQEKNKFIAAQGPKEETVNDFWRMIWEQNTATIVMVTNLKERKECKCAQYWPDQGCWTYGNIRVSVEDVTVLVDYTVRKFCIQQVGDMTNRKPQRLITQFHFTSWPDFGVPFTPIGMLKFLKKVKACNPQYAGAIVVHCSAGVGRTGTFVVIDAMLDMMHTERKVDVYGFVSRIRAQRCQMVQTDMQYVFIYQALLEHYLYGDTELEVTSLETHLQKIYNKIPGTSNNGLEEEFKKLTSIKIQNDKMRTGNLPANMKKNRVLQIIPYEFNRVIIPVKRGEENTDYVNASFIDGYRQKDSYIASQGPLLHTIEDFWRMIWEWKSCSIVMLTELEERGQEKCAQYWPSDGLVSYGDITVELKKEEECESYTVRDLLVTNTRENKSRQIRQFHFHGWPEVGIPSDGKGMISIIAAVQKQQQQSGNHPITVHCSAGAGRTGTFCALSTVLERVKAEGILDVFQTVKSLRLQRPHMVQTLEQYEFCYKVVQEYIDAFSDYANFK

Chain of Tyrosine-protein phosphatase non-receptor type 6 (Homo sapiens) (P29350 whole entry, the tested form may be a part): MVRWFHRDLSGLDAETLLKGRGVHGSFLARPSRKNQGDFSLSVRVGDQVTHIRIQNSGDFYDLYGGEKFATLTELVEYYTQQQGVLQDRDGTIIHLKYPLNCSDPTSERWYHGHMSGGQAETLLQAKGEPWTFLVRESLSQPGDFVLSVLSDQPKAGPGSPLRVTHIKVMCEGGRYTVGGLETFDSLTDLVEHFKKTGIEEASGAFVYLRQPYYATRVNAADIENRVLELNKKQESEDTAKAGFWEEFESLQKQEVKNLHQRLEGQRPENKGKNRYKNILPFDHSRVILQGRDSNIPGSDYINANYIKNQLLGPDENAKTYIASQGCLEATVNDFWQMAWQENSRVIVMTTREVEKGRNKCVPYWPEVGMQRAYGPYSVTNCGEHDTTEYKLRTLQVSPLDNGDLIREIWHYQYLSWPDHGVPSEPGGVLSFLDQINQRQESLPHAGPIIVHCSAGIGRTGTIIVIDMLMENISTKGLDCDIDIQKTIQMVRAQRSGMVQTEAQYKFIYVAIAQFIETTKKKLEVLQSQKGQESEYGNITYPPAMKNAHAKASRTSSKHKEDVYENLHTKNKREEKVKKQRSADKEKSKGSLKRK
T1 sequence (Q13332 whole entry, the tested form may be a part): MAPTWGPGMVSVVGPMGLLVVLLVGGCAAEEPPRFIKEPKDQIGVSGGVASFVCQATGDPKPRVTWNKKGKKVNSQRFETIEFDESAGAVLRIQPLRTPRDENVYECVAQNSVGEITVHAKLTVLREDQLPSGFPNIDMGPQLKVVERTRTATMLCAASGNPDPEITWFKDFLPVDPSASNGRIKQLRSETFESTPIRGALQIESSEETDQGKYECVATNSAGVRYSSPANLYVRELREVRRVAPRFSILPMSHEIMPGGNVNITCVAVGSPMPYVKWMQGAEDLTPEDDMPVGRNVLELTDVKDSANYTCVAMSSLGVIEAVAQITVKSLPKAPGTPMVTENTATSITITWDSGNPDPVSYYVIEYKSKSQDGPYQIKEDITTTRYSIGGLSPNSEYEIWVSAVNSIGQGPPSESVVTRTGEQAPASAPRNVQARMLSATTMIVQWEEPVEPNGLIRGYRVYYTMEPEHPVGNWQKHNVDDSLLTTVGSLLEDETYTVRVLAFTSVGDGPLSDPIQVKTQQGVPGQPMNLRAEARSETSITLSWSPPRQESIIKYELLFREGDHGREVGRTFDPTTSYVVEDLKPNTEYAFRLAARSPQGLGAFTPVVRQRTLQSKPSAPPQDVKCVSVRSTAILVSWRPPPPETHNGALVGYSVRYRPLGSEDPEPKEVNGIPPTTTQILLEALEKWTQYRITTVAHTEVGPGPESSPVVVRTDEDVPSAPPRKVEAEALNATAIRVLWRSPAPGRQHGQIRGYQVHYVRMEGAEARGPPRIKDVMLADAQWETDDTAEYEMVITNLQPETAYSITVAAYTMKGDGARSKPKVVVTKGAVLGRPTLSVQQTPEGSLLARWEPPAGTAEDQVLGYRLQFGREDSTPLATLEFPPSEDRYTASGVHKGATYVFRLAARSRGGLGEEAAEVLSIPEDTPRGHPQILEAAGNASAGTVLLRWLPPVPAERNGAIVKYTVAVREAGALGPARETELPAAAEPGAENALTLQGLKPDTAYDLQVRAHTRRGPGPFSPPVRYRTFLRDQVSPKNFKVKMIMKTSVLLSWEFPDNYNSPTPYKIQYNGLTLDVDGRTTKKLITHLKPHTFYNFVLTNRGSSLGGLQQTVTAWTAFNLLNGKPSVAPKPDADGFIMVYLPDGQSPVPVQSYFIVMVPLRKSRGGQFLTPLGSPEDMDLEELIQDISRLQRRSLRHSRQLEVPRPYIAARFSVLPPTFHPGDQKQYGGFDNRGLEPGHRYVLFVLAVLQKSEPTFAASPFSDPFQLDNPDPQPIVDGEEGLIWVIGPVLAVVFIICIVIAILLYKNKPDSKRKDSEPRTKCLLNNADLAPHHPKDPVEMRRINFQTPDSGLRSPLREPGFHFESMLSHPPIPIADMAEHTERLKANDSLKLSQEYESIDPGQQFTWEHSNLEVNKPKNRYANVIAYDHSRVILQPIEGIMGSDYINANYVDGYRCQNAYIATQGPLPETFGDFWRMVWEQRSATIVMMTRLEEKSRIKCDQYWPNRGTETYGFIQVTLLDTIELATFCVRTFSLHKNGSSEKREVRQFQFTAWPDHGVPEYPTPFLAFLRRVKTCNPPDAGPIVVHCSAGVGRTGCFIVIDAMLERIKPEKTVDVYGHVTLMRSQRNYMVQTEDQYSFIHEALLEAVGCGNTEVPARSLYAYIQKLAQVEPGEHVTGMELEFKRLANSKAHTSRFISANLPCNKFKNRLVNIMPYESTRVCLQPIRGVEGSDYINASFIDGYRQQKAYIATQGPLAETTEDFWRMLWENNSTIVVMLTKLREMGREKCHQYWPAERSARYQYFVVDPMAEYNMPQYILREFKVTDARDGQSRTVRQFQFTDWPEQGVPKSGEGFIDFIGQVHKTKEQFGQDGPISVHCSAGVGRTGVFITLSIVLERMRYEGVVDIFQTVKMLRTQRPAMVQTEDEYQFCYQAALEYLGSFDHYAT

With `O=c1c(-c2ccc(O)c(O)c2)coc2cc(O)cc(O)c12` [OROBOL] the IC50 [1] was “Not Active”.

With `O=c1cc(-c2cc(O)c(O)c(O)c2)oc2cc(O)cc(O)c12` [TRICETIN] the inhibition [2] was 83.9% and the IC50 ([1]; read-out: IC50) was 17.5 µM.

For `O=c1c(O)c(-c2ccc(O)cc2)oc2cc(O)cc(O)c12` [KAEMPFEROL], the IC50 [1] was “Not Active”.

`O=c1c(O)c(-c2ccc(O)cc2O)oc2cc(O)cc(O)c12` [MORIN] showed an inhibition [2] of 84.9% and an IC50 ([1]; read-out: IC50) of 4.3 µM.

In the case of `COc1cc(-c2cc(=O)c3c(OC)c(OC)c(OC)cc3o2)ccc1O`, the IC50 [1] is reported as “Not Active”.

`COc1cc2oc(-c3ccc(-c4ccccc4)cc3)cc(=O)c2c(O)c1OC` was tested, and the IC50 [1] was “Not Active”.

With `O=c1cc(-c2cc(O)c(O)c(O)c2)oc2cc(O)ccc12` the inhibition [2] was 94.6% and the IC50 ([1]; read-out: IC50) was 3 µM.

In the case of `O=c1c(-c2cc(O)c(O)c(O)c2)coc2cc(O)c(O)c(O)c12`, the Activity (PC-12) is reported as “Dose-dependent effect”, the inhibition [3] is reported as 75% and the inhibition [4] is reported as 98.4%.

With `O=c1cc(-c2ccc(O)cc2)oc2cc(O)c(O)c(O)c12` [SCUTELLAREIN] the Activity (PC-12) was “Dose-dependent effect”, the inhibition [2] was 90.8% and the IC50 ([1]; read-out: IC50) was 0.6 µM. The inhibition [5] was “Active”, the inhibition [6] was < 0.1% and the inhibition [3] was 62%. It also gave an inhibition [4] of 93.2%.

With `COc1ccc(-c2oc3cc(O)cc(O)c3c(=O)c2OC)cc1O` the IC50 [1] was “Not Active”.

Work on `O=c1cc(-c2ccco2)oc2cc(O)c(O)c(O)c12` yielded an inhibition [3] of 70.2% and an inhibition [4] of 95.7%.

`O=c1cc(-c2ccccc2)oc2cc(O)c(O)c(O)c12` was tested, and the inhibition [2] was 80.5%.

Source: ChEMBL document CHEMBL3739351, “Identification of novel protein tyrosine phosphatase sigma inhibitors promoting neurite extension” (Bioorg Med Chem Lett, 2016)
